pIC50: −log10 of the molar value.

For the test, the target named is T1, cannabinoid receptor 1 (CB1) (Homo sapiens, UniProt P21554).
T1 construct: gene CNR1
The test is described as follows: cell-based. Further details: species or system CHO-K1. The conditions noted are these: read-out: Antagonist IC50 RC50.

T1 sequence (P21554 whole entry): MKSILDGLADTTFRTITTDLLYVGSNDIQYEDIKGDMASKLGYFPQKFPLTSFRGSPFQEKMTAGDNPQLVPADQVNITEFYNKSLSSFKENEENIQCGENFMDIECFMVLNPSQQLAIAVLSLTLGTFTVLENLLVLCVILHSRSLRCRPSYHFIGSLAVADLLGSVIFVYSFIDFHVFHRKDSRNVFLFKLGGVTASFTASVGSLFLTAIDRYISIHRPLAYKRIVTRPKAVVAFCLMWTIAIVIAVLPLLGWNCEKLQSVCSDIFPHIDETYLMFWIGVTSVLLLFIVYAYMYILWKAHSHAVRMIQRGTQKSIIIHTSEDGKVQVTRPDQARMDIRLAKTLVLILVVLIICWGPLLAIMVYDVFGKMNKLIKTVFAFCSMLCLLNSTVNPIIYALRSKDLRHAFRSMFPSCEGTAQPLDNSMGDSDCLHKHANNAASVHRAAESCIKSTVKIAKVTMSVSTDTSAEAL
Excerpt: For agonist analysis, we monitored “evaluation of potency” (EC50) and % efficacy (Max response), which were reflected by increased intracellular cAMP levels detected in cAMP Hunter™ Gs cell lines (CHO-K1 lines) overexpressing human CNR1 (i.e., gene encoding CB1) or CNR2 (i.e., gene encoding CB2). Alternatively, antagonist activity (i.e., inhibitory concentration or IC50) utilized a cAMP Hunter™ Gi cell lines (CHO-K1 lines), detecting an intracellular reduction in cAMP levels in cells overexpressing CNR1 and CNR2. These cell lines are designed to be used in conjunction with the HitHunter® cAMP Assay Detection Kit. Specifically, for agonist assay, cells were subjected to positive controls, known to activate the increase in cAMP for both receptors (agonist control 20 µM Forskolin for CB1 and 25 µM Forskolin for CB2). […] Prior to testing the cell, plating media were exchanged with 10 uL of Assay buffer (HBSS + 10 mM HEPES). Agonist results are expressed as percent efficacy relative to the maximum response of the control ligand (%Effc or EC50), while antagonist results are expressed as percent inhibition of the control ligand (IC50) normalized to the unantagonized vehicle.

By pIC50 is commonly meant the IC50 on a negative log10 scale, so that one unit is a factor of ten. Turning to `Cc1c(C(=O)NN2CCOCC2)nn(-c2ccc(Cl)cc2Cl)c1-c1ccc(I)cc1` [AM281], the negative logarithm of the IC50 (pIC50) was 7.65.
